Assay [1] relates to phosphorylated MEK1/2 in human colon cancer cell HT-29. Briefly: Colon cancer cell HT-29 intracellular MEK phosphorylation inhibitory action in vitro (Western blot). The format is cell-based. As to conditions: HT-29 cells, 2 hr treatment, anti-phosphorylated MEK1/2 (Ser217/221), read-out: IC50 (nM), MEK phosphorylation inhibition. The procedure:
A cell suspension (500 μL) of human colon cancer cell HT-29 was plated in a 48-well plate (100,000 cells/well), and the cells were cultured overnight at 37° C. in the presence of 5% CO2, treated with a test compound (250 μL/well) diluted in 3-fold dilution series and cultured for two more hours. After 2 hr, the culture medium containing the test compound was removed, and the cells were lysed with SDS sample buffer (100 μL/well) and heated at 95° C. for 5 min. Thereafter, the cells were applied to SDS-PAGE, and the protein was transferred onto Sequi-Blot™ PVDF Membrane (Bio-Rad, Richmond, Calif.) by the Western blot method. The cells were blocked with a block-Ace solution (Snow Brand Milk Products Co., Ltd) dissolved in phosphate buffer to 5% W/V, and reacted overnight with anti-phosphorylated MEK1/2 (Ser217/221) (Cell signaling #9121) diluted 1000-fold with phosphate buffer containing 0.4% block-Ace. […] The membrane was washed in the same manner as above, chemical luminescence of a phosphorylated MEK1/2 protein labeled with the antibody, which was caused by ECL-plus Detection Reagent (Amersham bioscience), was detected by Luminescent Image Analyzer LAS-1000 (FUJIFILM Corporation).
For orientation: A western blot detects proteins with antibodies after separation by electrophoresis.

Assay [2] has as its system human colon cancer cell HT-29. Nature of the assay: Colon cancer cell HT-29 growth suppressive action in vitro (SRB). The format is cell-based. Conditions: 72 h, HT-29 cells, cultured for 3 days with compound, SRB staining, read-out: IC50 (nM), HT-29 growth suppression. The procedure:
A cell suspension (100 μL, 3,000 cells/well) of human colon cancer cell HT-29 (purchased from ATCC) was plated in a 96-well plate, and the cells were cultured at 37° C. in a 5% carbon dioxide gas incubator. The next day, 2-fold serial dilution of each test compound solution (diluted from maximum concentration 20 μM) (100 μL) was added, and the cells were cultured for 3 days. The culture medium containing the test compound was removed, and the cells were washed with phosphate buffer (PBS). A 50% trichloroacetic acid solution was added to the final concentration of 10% (v/v), and the mixture was stood overnight at 4° C., whereby the cells were fixed to the plate. Then, a dye SRB 0.4% (W/V) solution (dissolved in 1% acetic acid) was added at 50 μl/well, whereby the cell protein was fixed and stained (Skehan et al., Journal Of National Cancer Institute, vol. 82, pp. 1107-1112, 1990). The cells were washed 3 times with 1% acetic acid solution (200 μL/well), and 100 μL of an extract (10 mM Tris buffer) was added to extract the dye. The absorbance at an absorption wavelength […] was measured, and cell amount was measured as a protein amount.
For orientation: In SRB staining, fixed cells bind dye roughly in proportion to their protein.

In a further assay the target is T1, BRAF (V600E) kinase (Homo sapiens, UniProt P15056, V600E).
T1 construct: made in house; host or cells: SF-21 insect cells, recombinant baculovirus BAC-V600E
T1 sequence (P15056 457-717 V600E limits assumed): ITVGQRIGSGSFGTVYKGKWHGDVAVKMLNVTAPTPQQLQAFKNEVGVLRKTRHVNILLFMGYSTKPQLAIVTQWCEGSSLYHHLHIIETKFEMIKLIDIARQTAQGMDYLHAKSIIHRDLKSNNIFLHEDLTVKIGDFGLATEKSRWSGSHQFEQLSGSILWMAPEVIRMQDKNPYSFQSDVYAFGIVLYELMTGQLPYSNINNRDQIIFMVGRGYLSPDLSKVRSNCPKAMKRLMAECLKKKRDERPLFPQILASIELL
Nature of the assay: BRAF (V600E) kinase inhibitory activity ([γ-32P]ATP, GST-MEK1 (K96R) substrate). The format is biochemical. Conditions: 1 μM compound; BRAF (V600E) 30 ng, GST-MEK1 (K96R) 250 ng; room temperature, 20 min; read-out: The inhibitory rate of the compounds at 1 μM (%). The procedure:
Human BRAF gene was cloned by PCR using human Testis cDNA library (Clontech) as a template. The primer used for PCR was prepared from base sequence (Genbank Accession NM_004333) information of BRAF gene by adding a base sequence encoding flag peptide and a recognition sequence of the restriction enzyme to area encoding the BRAF kinase domain region, so that the protein contains an N-terminal Flag. The primer base sequence is shown below.
The PCR reaction was conducted using Pyrobest (Takara Shuzo Co., Ltd). The obtained PCR product was electrophoresed on agarose gel (1%), the DNA fragment amplified by PCR was recovered from the gel, and then digested with restriction enzymes EcoRI and SalI. The DNA treated with the restriction enzymes was electrophoresed on agarose gel (1%), and the obtained DNA fragment was recovered. The recovered DNA fragment was ligated to plasmid pFASTBAC1 (Invitrogen) digested with restriction enzymes EcoRI and SalI to give expression plasmid pFB-BRAF, and the base sequence of the insert fragment was confirmed. In addition, mutation was introduced into V600E using a Quick change Site Directed Mutagenesis kit (Stratagene). The nucleotide sequences of the primers used are shown in the following.
The obtained plasmid was sequenced to confirm the introduction of mutation into V600E. The plasmid DNA was digested with restriction enzymes EcoRI and SalI, DNA treated with the restriction enzymes was electrophoresed on agarose gel (1%), and the obtained DNA fragment was recovered. The recovered DNA fragment was ligated to plasmid pFASTBAC1 (Invitrogen) digested with restriction enzymes EcoRI and SalI to give expression plasmid pFB-V600E.
SF-21 cells were sown at 1×10^6 cells/mL to Sf-900II SFM medium (1 L, Invitrogen) containing 10% fetal bovine serum (Trace), 50 mg/L Gentamicin (Invitrogen) and 0.1% Pluronic F-68 (Invitrogen), and shaking culture was performed using a 2 L volume Erlenmeyer flask at 27° C., 100 rpm. After culturing for 24 hr, recombinant baculovirus BAC-V600E (13.4 mL) was added to the mixture, and the mixture was further cultured for 3 days. […]

Broadly, the IC50 is the point on the concentration scale where inhibition reaches its midpoint.

Each structure is given as a SMILES string.

Take `CC(C)(C#N)c1cccc(C(=O)Nc2cccc(Oc3ccc4nc(NC(=O)C5CC5)cn4c3)c2)c1` [Example 228, 3-(1-cyano-1-methylethyl)-N-[3-({2-[(cyclopropylcarbonyl)amino]imidazo[1,2-a]pyridin-6-yl}oxy)phenyl]benzamide]: the IC50 in assay [1] and in assay [2] was below 500 nM throughout.
Consider `N#CC1(c2cccc(C(=O)Nc3cccc(Oc4ccc5nc(NC(=O)C6CC6)nn5c4)c3)c2)CC1` [Example 232, 3-(1-cyanocyclopropyl)-N-[3-({2-[(cyclopropylcarbonyl)amino][1,2,4]triazolo[1,5-a]pyridin-6-yl}oxy)phenyl]benzamide], for which, in assay [1], the IC50 was below 500 nM.
Consider `Cc1ccc(NC(=O)c2cccc(C(C)(C)C#N)c2)cc1Oc1ccc2nc(NC(=O)C3CC3)nn2c1` [Example 233, 3-(1-cyano-1-methylethyl)-N-[3-({2-[(cyclopropylcarbonyl)amino][1,2,4]triazolo[1,5-a]pyridin-6-yl}oxy)-4-methylphenyl]benzamide], for which the IC50 in assay [2] was below 500 nM.
On to `Cc1ccc(NC(=O)c2cccc(C(F)(F)F)c2)cc1Oc1ccc2nc(NC(=O)C3CC3)nn2c1` [Example 235, N-[3-({2-[(cyclopropylcarbonyl)amino][1,2,4]triazolo[1,5-a]pyridin-6-yl}oxy)-4-methylphenyl]-3-(trifluoromethyl)benzamide], for which the inhibition at 1 µM at BRAF (V600E) kinase was 100%.

For the origin of these results see patent US8304557B2, “Fused heterocycle derivatives and use thereof” (Takeda Pharmaceutical Company Limited, priority 2007, dated 2012).
